Experimental data reported in the NIST ThermoML archive (doi:10.1016/j.jct.2011.01.013).
± gives the expanded uncertainty stated by the source.

Assay: mn = molality of the nth substance listed, in mol/kg
Details: 298.15 K, 101 kPa, Liquid; for viscosity: Capillary tube (Ostwald / Ubbelohde) method; for speed of sound: Sing-around technique in a fixed-path interferometer; for mass density: Vibrating tube method

CCCCCCCC[n+]1ccn(C)c1.[Cl-] [1-methyl-3-octylimidazolium chloride] + O
Details	mass density [kg/m3]	speed of sound [m/s]	viscosity [mPa·s]
m1 = 0.0074	–	–	0.8986 ± 0.008
m1 = 0.0127	997.14 ± 0.4	1499.2 ± 0.9	–
m1 = 0.01484	–	–	0.9052 ± 0.008
m1 = 0.017	997.17 ± 0.4	1500 ± 0.9	–
m1 = 0.02425	–	–	0.9131 ± 0.008
m1 = 0.0272	997.24 ± 0.4	1502 ± 0.9	–
m1 = 0.039	997.32 ± 0.4	1504.4 ± 1	–
m1 = 0.04255	–	–	0.9281 ± 0.0081
m1 = 0.0555	997.43 ± 0.4	1507.5 ± 1	–
m1 = 0.05607	–	–	0.9387 ± 0.0081
m1 = 0.06607	–	–	0.946 ± 0.0081
m1 = 0.0693	997.52 ± 0.4	1510.1 ± 1	–
m1 = 0.07893	–	–	0.956 ± 0.0082
m1 = 0.0892	997.65 ± 0.4	1513.8 ± 1	–
m1 = 0.0928	–	–	0.968 ± 0.0082
m1 = 0.1002	997.72 ± 0.4	1515.7 ± 1	–
m1 = 0.1061	–	–	0.9779 ± 0.0083
m1 = 0.1179	997.83 ± 0.4	1518.5 ± 1	–
m1 = 0.1353	997.94 ± 0.4	1521.5 ± 1	–
m1 = 0.1679	998.14 ± 0.4	1526.8 ± 1	–
m1 = 0.183	998.23 ± 0.4	1529.5 ± 1	–
m1 = 0.1948	998.3 ± 0.4	1531.3 ± 1	–

CCCCn1cc[n+](C)c1.COS(=O)(=O)[O-] [1-butyl-3-methylimidazolium methyl sulfate] + O
Details	mass density [kg/m3]	speed of sound [m/s]	viscosity [mPa·s]
m1 = 0.00791	–	–	0.8954 ± 0.008
m1 = 0.0096	997.41 ± 0.4	1498 ± 0.94	–
m1 = 0.01626	–	–	0.8999 ± 0.008
m1 = 0.02449	–	–	0.9046 ± 0.008
m1 = 0.0289	998.13 ± 0.4	1500.5 ± 0.95	–
m1 = 0.0329	–	–	0.9095 ± 0.008
m1 = 0.0411	998.59 ± 0.4	1502 ± 0.95	–
m1 = 0.04142	–	–	0.9133 ± 0.008
m1 = 0.0522	–	–	0.9182 ± 0.008
m1 = 0.0584	999.23 ± 0.4	1504.2 ± 0.95	–
m1 = 0.06083	–	–	0.9236 ± 0.0081
m1 = 0.07206	–	–	0.9287 ± 0.0081
m1 = 0.0828	1000.11 ± 0.4	1507.2 ± 0.96	–
m1 = 0.08297	–	–	0.9354 ± 0.0081
m1 = 0.09627	–	–	0.9428 ± 0.0081
m1 = 0.1188	1001.49 ± 0.41	1512 ± 0.96	–
m1 = 0.1481	1002.58 ± 0.41	1515.7 ± 1	–
m1 = 0.1736	1003.51 ± 0.41	1519 ± 0.97	–
m1 = 0.2021	1004.58 ± 0.41	1522.6 ± 0.98	–
m1 = 0.2252	1005.44 ± 0.41	1525.6 ± 0.98	–

CCCCn1cc[n+](C)c1.F[B-](F)(F)F [1-butyl-3-methylimidazolium tetrafluoroborate] + O
Details	mass density [kg/m3]	speed of sound [m/s]	viscosity [mPa·s]
m1 = 0.00382	–	–	0.8922 ± 0.0079
m1 = 0.01067	–	–	0.8943 ± 0.008
m1 = 0.0151	997.61 ± 0.4	1497.7 ± 0.9	–
m1 = 0.02196	–	–	0.8986 ± 0.008
m1 = 0.03489	–	–	0.9024 ± 0.008
m1 = 0.0355	998.36 ± 0.4	1499.1 ± 0.9	–
m1 = 0.04696	–	–	0.9053 ± 0.008
m1 = 0.05635	–	–	0.9095 ± 0.008
m1 = 0.0662	–	–	0.9133 ± 0.008
m1 = 0.07543	–	–	0.9162 ± 0.008
m1 = 0.0764	999.85 ± 0.4	1502 ± 1	–
m1 = 0.08767	–	–	0.9198 ± 0.0081
m1 = 0.09802	–	–	0.9239 ± 0.0081
m1 = 0.1052	1000.89 ± 0.41	1504 ± 1	–
m1 = 0.1284	1001.72 ± 0.41	1505.5 ± 1	–
m1 = 0.1538	1002.64 ± 0.41	1507.3 ± 1	–
m1 = 0.1803	1003.58 ± 0.41	1509.1 ± 1	–
m1 = 0.2059	1004.49 ± 0.41	1510.9 ± 1	–
m1 = 0.2269	1005.22 ± 0.41	1512.3 ± 1	–
m1 = 0.2505	1006.06 ± 0.41	1513.9 ± 1	–
